Measured values from patent US20180264282A1, “Specially Designed Kit To Aid Photo-Biologic Eradication Of Staphylococcus Aureus And MRSA In The Nares” (Nomir Medical Technologies, Inc., priority 2017, published 2018).
“And” between values parts separate entries of the source, which are not always exact repeats. Equal entries are not always repeated. Where two headings read alike, the source gives them in different places.

How the values were obtained:
[1] = system: nasal carriage of staphylococci; details: in snuff compounds; returned to normal after snuff therapy was discontinued; cited from earlier work
S. aureus [2] = details: cited from earlier work
[3] = system: gram-positive bacteria such as S. aureus; details: cited from earlier work
S. aureus [4] = details: cited from earlier work; remark: listed apart in the source
[5] = system: gram-positive enterococci; details: cited from earlier work
S. aureus [6] = experiment: summary of clinical nasal decolonization studies using mupirocin treatments; type: in vivo, human; details: administered three times per day versus twice per day
From the text: Overall, the results from clinical studies of nasal decolonization studies using various mupirocin treatments are summarized in the table below: […]

pyogenic skin infections = details: 2% water miscible cream three times per day for five days; assessed day seven; cited from earlier work
S. aureus [7] = details: in paraffin intra-nasally b.i.d. for five days; 72 hours after therapy; cited from earlier work
S. aureus [8] = details: b.i.d. five day regimen; cited from earlier work
[9] = system: gram-negative enterobacteriacea; details: cited from earlier work
S. aureus [10] = details: cited from earlier work; remark: listed apart in the source
MRSA = details: cited from earlier work
S. aureus [11] = details: cited from earlier work; remark: listed apart in the source
[12] = system: Staphylococcal furunculosis in the nose; details: 25% aqueous solution, topical; patients with chronic Staphylococcal furunculosis in the nose; cited from earlier work
S. aureus [13] = details: nasal administration; cited from earlier work
sycosis barbae = details: cream to skin lesions and nose; cited from earlier work
[14] = system: impetigo and furunculosis; details: spray; cited from earlier work
S. aureus [15] = details: after five days of local treatment to the nose, cited from earlier work
[16] = three weeks after the treatment phase

Nc1ccc(S(=O)(=O)Nc2nccs2)cc1 [sulphathiazole]
nasal colonies [1]: great reduction in nasal colonies

C/C(=C\C(=O)OCCCCCCCCC(=O)O)C[C@@H]1OC[C@H](C[C@@H]2O[C@H]2[C@@H](C)[C@H](C)O)[C@@H](O)[C@H]1O [mupirocin]
participants with S. aureus eradicated (S. aureus [2]; in paraffin t.i.d. for five days, tested four days after the last dose): 67 of the 69 | patients recolonized with S. aureus in the nose (S. aureus [2]; two weeks post therapy): approximately 40% | antibacterial activity [3]: antibacterial activity | cross-resistance with other antibiotics [3]: no cross-resistance | effective concentrations (S. aureus [4]): 0.05 to 0.5 µg/mL | mutant inhibitory concentration (MIC) (S. aureus [4]): 0.05 µg/mL | type of effect at MIC (S. aureus [4]; within MIC range cells recover in fresh media, higher concentrations needed for bactericidal effect): bacteriostatic | antibacterial activity [5]: not substantial activity | outcomes t.i.d. compared with b.i.d. (S. aureus [6]): statistically significantly better outcomes | patients with infection completely cleared (pyogenic skin infections): 43 of the 46 | proportion of hand cultures positive for S. aureus (S. aureus [7]): 2.9% | patients with nasal carriage eliminated (S. aureus [8]): approximately 80% | antibacterial activity [9]: not substantial activity | patients with S. aureus carriage eliminated from nares (S. aureus [10]; 2% in white soft paraffin four times per day, 18 treated): all | change in MIC to mupirocin on recolonization (S. aureus [10]; [16]): without an increase | patients who regained S. aureus in the nares (S. aureus [10]; [16]): three | treated patients and staff with nasal carriage eliminated (MRSA; 2% in paraffin t.i.d. for five days, 40 patients and 32 staff): all | number of patients with MRSA isolated from wrists (MRSA; immediately after therapy was completed, from 16 before): three | time to elimination of nasal carriage (MRSA; usually): ≤ 48 h | patients recolonized (MRSA; within two weeks after therapy): Four | Elimination after trial (S. aureus [11]; 2X-3X per day, 3-8 days): 97% | Elimination after trial (S. aureus [11]; 3X per Day, 5 Days): 100% and 97% | Elimination after trial (S. aureus [11]; 4X per Day, 5 Days): 100% | Recolonization (S. aureus [11]; at 3 weeks, 4X per Day, 5 Days): 16% at 3 weeks | Recolonization (S. aureus [11]; at 4 weeks, 2X per day, 5 days): 43% at 4 weeks and 22% at 4 weeks and 26% at 4 weeks

[Cl][Al]([Cl])[Cl] [aluminum chloride]
treatment outcome [12]: successful treatment outcome for all

Cc1onc(-c2ccccc2)c1C(=O)N[C@@H]1C(=O)N2[C@@H]1SC(C)(C)[C@@H]2C(=O)O [oxacillin]
aerial colonies of S. aureus (S. aureus [13]): decreased the aerial colonies of S. aureus | nasal colonization (S. aureus [13]): decreased nasal colonization

penicillin
nasal colonies [1]: great reduction in nasal colonies | healing of patients (sycosis barbae): all but one patient healed to satisfaction | use in treatment of impetigo and furunculosis [14]: successful | skin carriage (S. aureus [15]; from 57% before): 38% | nasal S. aureus carriage (S. aureus [15]; from 97% before): 37%
